Assay [1] concerns R388D1 cells (lymphoid neoplasm of a mouse). Kind of assay: Clonogenic activity of tumor cells, interaction with cyclophosphamide. The following applies: clones counted after 7 days; for influence upon the cloning process (clonogenic activity): taken separately. It is filed as cell-based.
A further assay has as its system tumor cells. The assay is described as follows: In vitro effect of alloferon on tumor cell proliferation. The following applies: depending on concentration in cultural media. It is filed as cell-based.
Assay [2] has as its system mice tumor syngeneic graft. The assay is described as follows: Growth of mice tumor syngeneic graft (alloferon research). The following applies: mouse, in vivo.
The next assay concerns leucocytes of a human. The assay is described as follows: Interferon in vitro synthesis by human leucocytes (interferonogenic activity). Type of assay: cell-based. To be noted: 0.01-10 microgram/ml, 24 hours, 6 donated blood samples.
For the next assay, the system named is R388D1-type tumor cells. Kind of assay: In vitro influence on tumor cells proliferation (mass culture, cell counts). It is filed as cell-based, mouse. The method, then:
Object of instant experiments is the comparative analysis of influence of allostatin and alloferon on tumor cells proliferation. Effects of allostatin-1 and alloferon-1 in concentrations 0.001, 0.01, 0.1, 1, and 10 microgram per ml on proliferative activity in a mass culture of R388D1-type tumor cells were compared. 5000 cells suspended in 2 ml of […] medium were seed into wells of 24-socket plates. Medium used for the experiments comprises 5% fetal calf serum produced by firm “Biolot”. Preparations were introduced into wells in 0.2 ml of the sane medium immediately after inoculation, and, in control, equivalent amount of the medium was introduced without medications. Number of cells in 1 ml of incubating medium was estimated by means of hemocytometric camera. Average number of cells in 1 ml of incubating medium after 21, 44, 99 and 144 hours after beginning of the experiment was estimated on the base of 3 independent measurements.
FIG. 3 presents a typical view of allostatin and alloferon influence on growth dynamics of tumor cell population. As an evaluation indicator of anti-proliferative activity of the medication, the value of a growth multiplicity of the population for 90 hours was selected, which value is determined as a ratio of a number of cells in a well in the beginning and at the end of the incubation time. […]

For assay [3], the system named is tumor cells of the syngeneic line R388D1. The assay is described as follows: Antitumoral action on transplanted tumors in mice. Type of assay: in vivo, mouse (line DBA-1). The method, then:
Each of laboratory mouse (line DBA-1) was subcutaneously injected by 3000 tumor cells of the syngeneic line R388D1. Next day mice were separated into 4 experimental groups. Mice of the first group have got only allostatin in a subcutaneous way in a dosage on 25 microgram at 4, 11 and 18 day after tumor cell transplantation. Second group has got a combination of cytostatic agents, cyclophosphamide (0.56 mg), doxorubicine (0.036 mg) and vincrystine (1.05 microgram) on the day of transplantation and after 7, 14 and 21 days. Third group has got allostatin and combination of cytostatic agents in the same way. Mice of the fourth group (control group) were injected by the solvent (0.9% NaCl) in the same days.

In the case of `O=P1(N(CCCl)CCCl)NCCCO1` (stereo not drawn) [cyclophosphamide, reference compound], the “influence upon the cloning process (clonogenic activity)” value in assay [1] is listed as “Neither cyclophosphamide, nor allostatin taken separately, had a significant influence”.

With “alloferon: Known immunomodulating peptide, SEQ ID NO 12; closest analogue, histidine and valine in positions 6 and 11 (HGVSGHGQHGVHG; Alloferon-1; listed as Calliphora vicina)”, in the assay with tumor cells, the “proliferation of tumor cells” value is “may both inhibit (at high concentrations) and stimulate (at low concentrations)”. For the same compound, the “growth of mice tumor syngeneic graft” value in assay [2] was “depresses the growth”. The “interferonogenic activity (allostatin vs alloferon)” value in the assay on leucocytes of a human was “have no significant difference”.

Take “allostatin: Linear 13-amino-acid peptide, SEQ ID NO 1; differs from alloferon-1 by tryptophan at position 6 and threonine at position 11 (HGVSGWGQHGTHG; Synthetic construct designed on the basis of the peptides SEQ ID NO 2-12 comparison)”: in the assay with R388D1-type tumor cells (10 microgram/ml, over the observation period), the “growth of the tumor cell population” value is recorded as “almost completely stopped the growth”. Moreover, the “anti-proliferative activity relative to alloferon (growth multiplicity of the population)” value in the assay with R388D1-type tumor cells (concentrations of 0.001-1 mkg/ml, growth multiplicity for 90 hours) was 3-7 times. The “interferonogenic activity (allostatin vs alloferon)” value in the assay with leucocytes of a human was “have no significant difference”. Moreover, the “clonogenic activity of tumor cells” value in assay [1] (allostatin in combination with cyclophosphamide) was “significantly decreased a clonogenic activity of tumor cells, proportionally to allostatin dose”. Further, the “influence upon the cloning process (clonogenic activity)” value in assay [1] is given as “Neither cyclophosphamide, nor allostatin taken separately, had a significant influence”. Besides, the “mice with formed tumors during observation period” value in assay [3] (allostatin 25 microgram s.c. (days 4, 11, 18) combined with cytostatics (cyclophosphamide, doxorubicine, vincrystine)) turned out to be 40%. The tumor formation entry in assay [3] (allostatin or cytostatics given separately, DBA-1 mice, 3000 R388D1 cells subcutaneously) was “tumors were formed after some delays, and moderate part of animals has not exhibited tumor formation”. Moreover, in assay [3] (combination of allostatin and cytostatics), the antitumoral action result is “strong and in the most cases irreversible antitumoral action”.

For the origin of these results see patent US8372406B2, “Antitumoral and antiviral peptides” (priority 2004, dated 2013).
